How the values were obtained:
[1] = system: long-term repopulating cell (LTRC) in NSG mice; experiment: Serial (secondary) transplantation limiting dilution analysis, LTRC frequency; assay type: in vivo
Excerpt: (§1) (A) Experimental scheme (B) Representative FACS analysis data of in vitro culture for 16 HSC dose time course (n=3). The number of (C) viable cells, (D) CD15+ myeloid cells, (E) GlyA+ erythroid cells, and (F) CD34+ primitive cells measured for the 16 LTRC dose with HTS flow cytometry analysis at day 8 post-treatment for vehicle control or 4HPR prior to xenotransplantation (n=5 biological replicates, 4 in technical triplicate, marked with different symbols). (G) Human CD45+ engraftment at 16 weeks post transplant in injected femur (n=4, 5 mice/biological experiment). Lineage analysis of control or 4HPR transplanted mice from FIG. 5G for (H) B lymphoid, (I) myeloid, (J) erythroid, and (K) primitive CD34+ at the 16 LTRC dose. (L) CD45+ cells were isolated from 5 biological experiments of the 16 LTRC dose primary mice and transplanted at limiting doses into secondary recipients for 16 weeks. Human CD45+ marking of >0.1% was considered positive for secondary engraftment. Limiting dilutation analysis was performed using ELDA software and the long-term repopulating cell (LTRC) frequency for each biological replicate plotted and the average LTRC frequency calculated.
(§2) (A) The number of cells following 8 days of ex vivo culture at the 16 LTRC dose grown as in FIG. 5A for the indicated drug treatments (n=2). […] (2 biological replicates) (E) CD45+ cells were isolated from 2 biological experiments of the 16 LTRC dose primary mice and transplanted at limiting doses into secondary recipients for 16 weeks. Human CD45+ marking of >0.01% was considered positive for secondary engraftment. Limiting dilutation analysis was performed using ELDA software and the long-term repopulating cell (LTRC) frequency for each biological replicate plotted and the average LTRC frequency calculated.
To determine if 4HPR preserves functional HSC in CB liquid culture, we devised an experimental protocol to test the effect of 4HPR treatment in short-term ex vivo expansion culture on repopulation in serial NSG xenotransplantation to functionally read out LT-HSC (FIG. 5A). […]

[2] = system: lin- CB cells; experiment: 8 day ex vivo expansion culture of lin- CB, flow cytometry; assay type: cell-based, human
Excerpt: as §1
(A) Representative flow cytometry analysis of the primitive hierarchy within the CD34+ fraction of day 8 cultured lin− CB cells after the indicated treatments for CD90 and CD45RA, n=4. B) The distribution of cultured CD34+CD90+CD45RA− (cHSC), CD34+CD90−CD45RA− (cMPP), and […] for the indicated conditions at day 8 of ex vivo culture following CD34 enrichment. Statistical significance assayed through unpaired t-test relative to vehicle control (Ctrl). The relative number of colonies resulting from (C) HSC or (D) MPP grown in methylcellulose CFC assays in the presence of vehicle control (−) or the indicated combination of 2 uM 4HPR, or 35 nM UM171 or 0.5 uM SR1 at 10 days. Statistical significance is calculated via unpaired t-test relative to ctrl (black) or to the presence of absence of 4HPR treatment for UM171 or SR1.
as §2
To determine if 4HPR preserves functional HSC in CB liquid culture, we devised an experimental protocol to test the effect of 4HPR treatment in short-term ex vivo expansion culture on repopulation in serial NSG xenotransplantation to functionally read out LT-HSC (FIG. 5A). Briefly, lin− CB (enriched for CD34+) is cultured ex vivo in an in vitro limiting dilution assay (LDA) fashion based on 3 initial cell doses with high (16 functional HSC or LTRC), medium (3.2 LTRC) and limiting (0.65 LTRC) in xenotransplantation. All expanded cells are unbiasly transplanted via intrafemoral injection into NSG mice after 8 days of culture where drug is added every 2 day and reconstitution is assayed 16 weeks following transplantation. […] Human CD45+ cells are isolated from primary mice transplanted with the 16 LTRC dose and serially transplanted in LDA fashion to enumerate functional HSC in the gold-standard for long-term repopulating cell (LTRC). Remarkably, 4HPR treated cells show a 3 fold increase in SRC over control treatment through 32 weeks of xenotransplantation with an average LTRC frequency of 1e6 CD45+ cells (FIG. 5L, n=5, p=0.02). […] Thus, 4HPR acts to preserve LT-HSC function in ex vivo expansion despite limiting total CD34+ cells during culture. […]

[3] = system: HSPC subpopulations including HSC, MPP and GMP; experiment: BrdU incorporation (proliferation rate); assay type: cell-based, human; conditions: 2 uM 4HPR, day 3 post-treatment
[4] = 8 days culture, 4HPR vs vehicle control

CC1=C(/C=C/C(C)=C/C=C/C(C)=C/C(=O)Nc2ccc(O)cc2)C(C)(C)CCC1 [4HPR, N-(4hydroxyphenyl)retinamide]
frequency of LT-HSC ([1]; 4HPR added to SR1+UM171 treatment compared to SR1+UM171 treatment alone): doubled | average LTRC frequency ([1]; 4HPR treated cells, through 32 weeks of xenotransplantation): 1e6 CD45+ cells | increase in SRC over control treatment ([1]; through 32 weeks of xenotransplantation, n=5, p=0.02): 3 fold | erythroid differentiation in culture [2, 4]: decreased erythroid differentiation | immunophenotypic CD34+ cells in culture [2, 4]: fewer immunophenotypic CD34+ cells | myeloid differentiation in culture [2, 4]: enhanced myeloid differentiation | cHSC in the CD34 compartment ([2]; day 8, relative to control): trends to increasing cHSC | cMPP in the CD34 compartment ([2]; day 8, relative to control): increasing cMPP | percentage of cProg cells in the CD34 compartment ([2]; day 8, relative to control): significantly limits the percentage of (cProg) cells | formation of cProg cells ([2]; lin- CB as well as HSC and MPP, dominant over UM171 or SR1 singularly and in combination): limits the formation of cProg cells | proliferation rate by BrdU incorporation [3]: decreased proliferation rate

— patent US20190136188A1, “4HPR AND ITS USE IN THE CULTURING OF HEMATOPOIETIC STEM CELLS” (UNIVERSITY HEALTH NETWORK, priority 2016, published 2019)
